Assay results taken from US7494996B2 (priority 2000, dated 2009).

Columns and labels:
Sphaerotheca fuliginea = experiment: Cucumber Powdery Mildew (CPM) protectant test in the greenhouse; assay type: in vivo; details: 100 is total disease control, 0 is no disease control; for Cucumber Powdery Mildew (CPM) protectant fungicide data, percent control: 300 g/ha; for pest or weed control at 300 g/ha: Podosphaera fuliginea, topical, 168 h, read-out: Cucumber Powdery Mildew (CPM) protectant fungicide data, percent control
Method in brief: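 Protectant format: one day after spraying with test compound (A/M/W 1:1:2), cotyledon-plus-one-leaf cucumber plants were misted with Sphaerotheca spores at 2×10^5/ml. Greenhouse disease development; percent control scored at day 7 (100 = total, 0 = none).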

Pyricularia oryzae = experiment: whole plant or invertebrate; assay type: in vivo; details: 100 is total disease control, 0 is no disease control; for Rice Blast (RB) protectant fungicide data, percent control: 300 g/ha, greenhouse; for pest or weed control at 300 g/ha: Pyricularia oryzae, topical, 144 h, read-out: Rice Blast (RB) protectant fungicide data, percent control, protectant, 300 g/ha, greenhouse

SMILES | Cucumber Powdery Mildew (CPM) protectant fungicide data, percent control (Sphaerotheca fuliginea) [percent control] | Rice Blast (RB) protectant fungicide data, percent control (Pyricularia oryzae) [percent control] | pest or weed control at 300 g/ha (Sphaerotheca fuliginea) [%] | pest or weed control at 300 g/ha (Pyricularia oryzae) [%]
CSc1ccc(C2=NN(c3cccc(C)c3)C(=O)CN2)cc1 [Compound 187] | 0 | 80 |  | 
CCCCN1N=C(C)NC(c2ccc(F)cc2)C1=O (stereo not drawn) [Compound 93] | 75 | 0 |  | 
C=COC(=O)N1CC(=O)N(CC(F)(F)F)N=C1c1cc(Cl)cc(Cl)c1 [Compound 113] | 75 | 99 |  | 
O=C1CNC(c2ccc(Cl)c(Cl)c2)=NN1CC(F)(F)F [Compound 99] | 80 | 100 |  | 
CCCCN1N=C(c2cccc(C3=NN(CCCC)C(=O)CN3)c2)NCC1=O [Compound 232] | 99 | 100 |  | 
CCCCN1N=C(c2cccc(F)c2)NCC1=O [Compound 221] | 80 | 85 |  | 
O=c1[nH]c(-c2cc(Cl)cc(Cl)c2)nn(CC(F)(F)F)c1=O [Compound 21, 1-(2,2,2-Trifluorethyl)-3-(3,5-dichlorophenyl)-1,2,4-triazin-5,6-dione] | 50 | 0 |  | 
CCCCN1N=C(c2cccc(Br)c2)NCC1=O [Compound 211] | 85 | 100 |  | 
O=C1CNC(c2ccc(F)c(Cl)c2)=NN1CC(F)(F)F [Compound 1, 1-(2,2,2-trifluoroethyl)-3-(3-chloro-4-fluorophenyl)-4,5-dihydro-1,2,4-triazin-6-one] |  |  | 80 | 99
CCCCn1nc(-c2ccc(OC)cc2)ncc1=O [Compound 244] | 50 | 100 |  | 
COc1cccc(C2=NN(CC(F)(F)F)C(=O)CN2)c1 [Compound 46] | 0 | 80 |  | 
O=C1CN(CC2CC2)C(c2cccc(F)c2)=NN1CC1CC1 [Compound 222] | 50 | 0 |  | 
CCCCN1N=C(c2c(Cl)cncc2Cl)NCC1=O [Compound 121] | 0 | 80 |  | 
O=C1CNC(c2ccccc2)=NN1 [Compound 32] | 50 | 75 |  | 
O=C1CNC(c2ccc3ccccc3c2)=NN1 [Compound 124] | 0 | 75 |  | 
O=C1CNC(c2ccc(Cl)cc2)=NN1Cc1ccc(Cl)s1 [Compound 62] | 0 | 85 |  | 
O=C1CNC(c2ccc(-c3ccccc3)cc2)=NN1CC(F)(F)F [Compound 146] | 85 | 95 |  | 
O=C1CNC(c2cc(Cl)cc(Cl)c2)=NN1 [Compound 64] | 0 | 50 |  | 
O=C1CNC(c2ccccc2Cl)=NN1CC(F)(F)F [Compound 97] | 85 | 0 |  | 
O=c1cnc(-c2ccccc2F)nn1CC(F)(F)F [Compound 263] | 85 | 80 |  | 
Cc1cccc(C2=NN(CC(F)(F)F)C(=O)CN2)c1 [Compound 154] | 75 | 0 |  | 
CCCCN1N=C(c2ccc(Cl)c(Cl)c2)NCC1=S [Compound 17, 1-Butyl-3-(3,4-dichlorophenyl)-4,5-dihydro-1,2,4-triazin-6-thione] |  |  | 80 | 99
CCCCCCN1N=C(c2ccc(Cl)cc2)NCC1=O [Compound 55] | 50 | 90 |  | 

SMILES | Cucumber Powdery Mildew (CPM) protectant fungicide data, percent control (Sphaerotheca fuliginea) [percent control] | Rice Blast (RB) protectant fungicide data, percent control (Pyricularia oryzae) [percent control] | pest or weed control at 300 g/ha (Sphaerotheca fuliginea) [%] | pest or weed control at 300 g/ha (Pyricularia oryzae) [%]
Cc1ccccc1C1=NN(CC(F)(F)F)C(=O)C(O)N1 (stereo not drawn) [Compound 105] | 75 | 85 |  | 
CCCCN1N=C(c2ccc(OCC)cc2)NCC1=O [Compound 116] | 0 | 85 |  | 
CCCCN1N=C(c2cccc(C#N)c2)NCC1=O [Compound 175] | 0 | 95 |  | 
COC(=O)SN1CC(=O)N(CC(F)(F)F)N=C1c1cc(Cl)cc(Cl)c1 [Compound 14, 1-(2,2,2-trifluoroethyl)-3-(3,5-dichlorophenyl)-4-(methoxycarbonylthio)-4,5-dihydro-1,2,4-triazin-6-one] |  |  | 85 | 100
CCCCN1N=C(c2ccc(C3=NN(CCCC)C(=O)CN3)cc2)NCC1=O [Compound 230] |  |  | 0 | 75
C=CCOC(=O)N1CC(=O)N(CC(F)(F)F)N=C1c1cc(Cl)cc(Cl)c1 [Compound 134] | 50 | 80 |  | 
C#CCOC(=O)N1CC(=O)N(CCCC)N=C1c1ccc(Cl)c(Cl)c1 [Compound 171] | 50 | 80 |  | 
CCCCN1N=C(c2ccc(Cl)c(Cl)c2)N(Cc2ccc(OC)cc2)CC1=O [Compound 199] | 0 | 90 |  | 
CCCCN1N=C(c2cc(Cl)ccc2Cl)NCC1=O [Compound 74] | 0 | 99 |  | 
CCCCN1Nc2c3c(Cl)c(Cl)ccc3cn2CC1=O [Compound 23, 9,10-Dichloro-2-butyl-1,2,4-triazino[3,4-a]isoindol-3(4H)-one] |  |  | 50 | 0
C#CCN1CC(=O)N(CCCC)N=C1c1cc(Cl)cc(Cl)c1 [Compound 131] | 75 | 80 |  | 
CCOC(=O)CN1N=C(c2ccc(F)c(F)c2)NCC1=O [Compound 125] | 50 | 50 |  | 
N#CCn1nc(-c2ccc(Cl)cc2)ncc1=O [Compound 264] | 0 | 50 |  | 
CCCCN1N=C(c2ccc(OC)cc2)NCC1=O [Compound 36] | 50 | 99 |  | 
C#CCN1CC(=O)N(CC(F)(F)F)N=C1c1cc(Cl)cc(Cl)c1 [Compound 169] | 0 | 50 |  | 
CCCCN1N=C(c2cc(Cl)cc(Cl)c2)N(C(=O)OCCl)CC1=O [Compound 15, 1-(n-butyl)-3-(3,5-dichlorophenyl)-4-(chloromethyloxycarbonyl)-4,5-dihydro-1,2,4-triazin-6-one] |  |  | 50 | 75
CCCCN1N=C(c2ccc(-c3ccc(C4=NN(CCCC)C(=O)CN4)cc3)cc2)NCC1=O [Compound 231] |  |  | 0 | 85
COc1ccc(C2=NN(CC(F)(F)F)C(=O)C(OC)N2)cc1 (stereo not drawn) [Compound 39] | 85 | 99 |  | 
CCCCC1=NN(c2ccc(Cl)cc2)C(=O)CN1 [Compound 204] | 85 | 75 |  | 
C=CCN1N=C(c2cc(Cl)cc(Cl)c2)NCC1=O [Compound 128] | 0 | 90 |  | 
CCc1ccc(C2=NN(CC(F)(F)F)C(=O)CN2)cc1 [Compound 150] | 50 | 100 |  | 
C#CCN1CC(=O)N(CC#C)N=C1c1ccc(Cl)c(Cl)c1 [Compound 216] | 80 | 98 |  | 
